Source: patent US4845029A, “Method for the determination of sarcosine creatine or creatinine” (Boehringer Mannheim GmbH, priority 1985, dated 1989)

What was measured:
Assay type in all cases: biochemical
[1] = system: sarcosine oxidase (E.C. 1.5.3.1) from Chainia purpurogena (DSM 43 156), pure enzyme; experiment: KM value for sarcosine in stressing reagent a; conditions: pH 7.9, detergent-containing
Method: (§1) The KM values for sarcosine (phosphate buffer; TES buffer), measured at 25° C. in various stressing reagents, are 2 to 3 mmol/litre. The Vmax is about 6 U/mg. protein. The followig Table I gives, for various preparations of the enzyme according to the present invention, the KM values for sarcosine measured at 25 and at 37° C. For comparison, there are given the corresponding values for the known Bacillus enzyme.
(§2) 0.15 mole potassium phosphate or 0.1 mole TES/KOH (pH 7.9), 8.6 mmole 2,4,6-tribromo-3-hydroxybenzoic acid, 0.8 mmole 4-aminoantipyrine, 10 μmole potassium ferrocyanide, 5 mmole sodium cholate, 0.5% Lutensol ON 50, 0.2% sodium azide, 0.5 mmole Titriplex III, 2000 U lipase, 2000 U peroxidase and 10000 U ascorbate oxidase, per liter. [Lutensol ON 50 ^R is obtained from BASF AG and is n-decanol-polyglycolether having an average of 5 ethylene glycol units per molecule i.e. CH3 -(CH2)9 -(OCH2 -CH2)5 -OH. Titriplex III is the disodium salt of ethylenediaminetetracetic acid and can be obtained from Merck.]

[2] = system: known sarcosine oxidase from Bacillus sp. (comparison enzyme); experiment: KM value for sarcosine in stressing reagent a; conditions: pH 7.9, detergent-containing
Method: as §1, §2

[3] = system: sarcosine oxidase from Chainia purpurogena, crude extract supernatant; experiment: KM value for sarcosine in stressing reagent a; conditions: 37 °C, pH 7.9, detergent-containing
Method: as §1, §2

[4] = system: sarcosine oxidase from Streptomyces flocculus (DSM 40 327), crude extract supernatant; experiment: KM value for sarcosine in stressing reagent a; conditions: 37 °C, TES buffer, pH 7.9, detergent-containing
Method: as §1, §2

[5] = system: sarcosine oxidase according to the present invention, obtainable from Streptomycetaceae; experiment: KM and Vmax for sarcosine; conditions: substrate sarcosine
Method: In contradistinction thereto, the KM values of the known sarcosine oxidases which are sufficiently stable for these determinations are, under these conditions, abou 16 to 20 mmol/liter.
as §1

CNCC(=O)O [sarcosine]
Km ([1]; 25 °C, TES buffer): 2.8 mM | Km ([1]; 25 °C, phosphate buffer): 2 mM | Km ([1]; 37 °C, TES buffer): 3 mM | Km ([1]; 37 °C, phosphate buffer): 3.5 mM | Km ([2]; 25 °C, TES buffer): 20 mM | Km ([2]; 25 °C, phosphate buffer): 16 mM | Km ([2]; 37 °C, TES buffer): 20 mM | Km ([2]; 37 °C, phosphate buffer): 18 mM | Km ([3]; TES buffer): 3 mM | Km ([3]; phosphate buffer): 3 mM | Km [4]: 3.5 mM | Vmax [5]: about 6 U/mg. protein
